Measured values taken from patent US20250236589A1, “THERAPEUTIC PHENETHYLAMINE COMPOSITIONS AND METHODS OF USE” (Cybin IRL Limited, priority 2022, published 2025).
pEC50, pKi: −log10 of the molar value. Like-named read-outs stand apart in the source and are kept apart here. Marks after values point to notes of the source that are not given here.

Legend:
[1] = In vitro liver microsome stability (RLM); format: in vitro ADME; details: rat, rat liver microsomes, 0.5 mg/mL microsomes, NADPH, read-out: RLM, t1/2
Experimental: (§1) In vitro stability was determined in Human (HLM), Rat (RLM), Mouse (MsLM), and dog (DLM) Liver Microsomes. All liver microsomes were purchased from a commercial supplier (e.g. XenoTech). The reaction mixture, minus NADPH, was prepared as described below. The test compound was added into the reaction mixture at a final concentration of 1 μM or co-dosed with their deuterated analog(s) at 1 μM each. The control compound, testosterone, was run simultaneously with the test compound in a separate reaction. The reaction mixture (without cofactor) was equilibrated in a shaking water bath at 37° C. for 5 minutes. The reaction was initiated by the addition of the cofactor, and the mixture was incubated in a shaking water bath at 37° C. Aliquots (150 μL) were withdrawn at 0, 5, 10, 20, 30, 60, and 120 minutes. Test compound and testosterone samples were immediately combined with 150 μL of ice-cold acetonitrile (ACN) containing 0.1% formic acid and internal standard to terminate the reaction. The samples were then mixed and centrifuged to precipitate proteins. All samples were assayed by LC-MS/MS using electrospray ionization. The peak area response ratio (PARR) of analyte to internal standard at each time point was compared to the PARR at time 0 to determine the percent remaining at each time point. Half-lives were calculated using GraphPad software, fitting to a single-phase exponential decay equation.

[2] = molecular target: T1, 5-HT2A receptor (Homo sapiens (Human), UniProt P28223); experiment: 5-HT2A functional assay, IP1 (IPOne); format: cell-based; details: for 2A/2B EC50 Selectivity / Emax: IP1 assay; for Emax: relative to 5-HT
Experimental: After incubation, cells were lysed and fluorescence acceptor and donor were added. FRET was measured after 60 min at room temperature using a microplate reader (Envision, Perkin Elmer). TRUPATH assays followed a similar workflow, except that different reagents were used, and LiCl was not included in the samples; the protocol was based on the report by Olsen, R. H. J. et al., cited above.

[3] = tested on: mice; experiment: Head-twitch response (HTR) screening in mice; format: in vivo, mouse
Experimental: Protocols were followed according to Canal C E, Morgan D. Head-twitch response in rodents induced by the hallucinogen 2,5-dimethoxy-4-iodoamphetamine: a comprehensive history, a re-evaluation of mechanisms, and its utility as a model. […] Mice were housed in standard laboratory cages with ad libitum access to food and water and were acclimated to the vivarium for at least one week prior to testing in a procedure room. In a typical experiment, mice were injected 3 mg/kg of test article subcutaneously. Mice were placed immediately thereafter in a clear, polycarbonate box (46×20×20 cm), and HTRs were counted at various time points after administration using hand-held tally counters. In a separate experiment, plasma and brain samples were collected at 15 and 160 minutes after administration of test compounds to measure plasma and brain concentrations. Quantification was performed using LC-MS/MS method (LLOQ, 9 nM).

[4] = Plasma and brain concentrations after dosing in mice (screening); format: in vivo, mouse; details: for concentration at 15 min / concentration at 160 min / Kp at 160 min: mouse; for concentration at 15 min / concentration at 160 min: sc, mice, 3 mg/kg s.c.; for Kp at 160 min: brain/plasma, subcutaneous, 3 mg/kg, read-out: brain/plasma ratio, 160 min
[5] = molecular target: T1, 5-HT2A receptor; experiment: 5-HT2A radioligand competition binding ([3H]LSD or [3H]ketanserin)
[6] = molecular target: 5-HT1A receptors (Homo sapiens (Human), UniProt P08908); experiment: 5-HT1A radioligand binding ([3H]8-OH-DPAT); details: for inhibition at 0.1 µM: 100 nM
Experimental: In another series of 5-HT1A,2A,2B radioligand competition binding assays, the conditions were as follows: For 5-HT1A assays, cell membrane homogenates (˜30 μg protein) derived from HEK-293 cells expressing human 5-HT1ARs were incubated with 0.5 nM [^3H]8-hydroxy-2-(di-n-propylamino)tetralin ([^3H]8-OH-DPAT) for 60 min at room temperature in the presence or absence of the test article. Non-specific binding was determined in the presence of 10 μM 8-OH-DPAT. Samples were then analyzed as described above, with only immaterial differences. […] Samples were then analyzed as described above.

[7] = molecular target: human 5-HT2B receptor (Homo sapiens (Human), UniProt P41595); experiment: 5-HT2B functional assay, IP1 (IPOne); format: cell-based; details: for Emax: IP1 assay
Sequence of human 5-HT2B receptor (P41595 whole entry, looked up): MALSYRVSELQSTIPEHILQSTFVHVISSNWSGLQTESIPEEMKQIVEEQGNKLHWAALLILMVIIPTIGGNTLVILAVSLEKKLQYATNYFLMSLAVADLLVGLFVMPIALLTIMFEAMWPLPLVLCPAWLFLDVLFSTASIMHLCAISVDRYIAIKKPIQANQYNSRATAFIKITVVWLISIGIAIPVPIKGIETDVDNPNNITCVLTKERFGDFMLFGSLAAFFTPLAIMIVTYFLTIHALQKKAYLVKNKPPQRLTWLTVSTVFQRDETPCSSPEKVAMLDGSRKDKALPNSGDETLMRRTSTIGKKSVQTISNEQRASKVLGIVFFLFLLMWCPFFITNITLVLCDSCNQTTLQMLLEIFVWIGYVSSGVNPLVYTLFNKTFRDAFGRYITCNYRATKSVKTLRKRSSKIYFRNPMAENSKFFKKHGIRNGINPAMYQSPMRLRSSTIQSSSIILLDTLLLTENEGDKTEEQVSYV
Experimental: 5-HT2A,2B,2C receptor-mediated Gq activation—canonical signaling pathways—[phosphoinositide hydrolysis leading to the production of inositol phosphate 1 (IP1, IPOne, Cisbio assay) or direct G-protein activation using TRUPATH technology]were measured as previously described (Porter, R. H. P., Benwell, K. R., Lamb, H., Malcolm, C. S., Allen, N. F., Revell, D. F., Adams, D. R. and Sheardown, M. J., 1999, Functional characterization of agonists at recombinant human 5-HT2a, 5HT2b and 5-HT2c receptors in CHO-K1 cells, Brit J Pharmacol 128, 13; Olsen, R. H. J., DiBerto, J. F., English, J. G. et al. TRUPATH, an open-source biosensor platform for interrogating the GPCR transducerome. […] Briefly, for the IPOne assay, for 5-HT2ARs, CHO-K1 or HEK-293 cells were incubated with test articles and 5-HT (positive control) in stimulation buffer containing LiCl. After incubation, cells were lysed and fluorescence acceptor and donor were added. FRET was measured after 60 min at room temperature using a microplate reader (Envision, Perkin Elmer). TRUPATH assays followed a similar workflow, except that different reagents were used, and LiCl was not included in the samples; the protocol was based on the report by Olsen, R. H. J. et al., cited above.

[8] = molecular target: MAO-A (Homo sapiens (Human), UniProt P21397); experiment: Recombinant human MAO-A activity (stability); format: in vitro ADME; details: hrMAO 0.02 mg/mL, read-out: MAO-A, t1/2
Sequence of MAO-A (P21397 whole entry, looked up): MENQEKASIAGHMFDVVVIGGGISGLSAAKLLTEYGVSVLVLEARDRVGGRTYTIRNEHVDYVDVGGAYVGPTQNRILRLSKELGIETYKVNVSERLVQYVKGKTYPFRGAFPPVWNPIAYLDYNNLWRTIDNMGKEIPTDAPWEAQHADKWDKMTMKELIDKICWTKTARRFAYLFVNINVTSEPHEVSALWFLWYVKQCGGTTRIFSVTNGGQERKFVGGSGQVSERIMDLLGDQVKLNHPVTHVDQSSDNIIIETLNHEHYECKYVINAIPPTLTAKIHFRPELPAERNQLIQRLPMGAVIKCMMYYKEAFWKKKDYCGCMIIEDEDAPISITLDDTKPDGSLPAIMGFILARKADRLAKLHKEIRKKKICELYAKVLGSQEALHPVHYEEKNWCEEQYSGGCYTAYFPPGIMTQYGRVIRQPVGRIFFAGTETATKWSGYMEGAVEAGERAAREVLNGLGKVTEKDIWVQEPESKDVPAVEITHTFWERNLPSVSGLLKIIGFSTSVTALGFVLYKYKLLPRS
Experimental: hrMAO-A and MAO control were purchased from XenoTech. The reaction mixture was prepared as described below. The test compound was added into the reaction mixture at a final concentration of 1 μM or co-dosed with their deuterated analog at 1 μM each. The positive control kynuramine (25 μM) was run simultaneously with the test compound in a separate reaction. The reaction mixture (without test compounds or kynuramine) was equilibrated in a shaking water bath at 37° C. for 5 minutes. The reaction was initiated by the addition of the test compound or kynuramine, and the mixture was incubated in a shaking water bath at 37° C. Aliquots (150 μL) of the test compound reaction mixture were withdrawn at 0, 5, 10, 20, 30, 60, and 120 minutes. Aliquots (150 μL) of the positive control reaction mixture were withdrawn at 0 and 30 minutes. Test compound(s) and kynuramine samples were immediately combined with 150 μL of ice-cold 100% acetonitrile containing 0.1% formic acid and internal standard (0.2 μM metoprolol) to terminate the reaction. The samples were then mixed and centrifuged to precipitate proteins. All samples were assayed by LC-MS/MS. The peak area response ratio (PARR) of analyte to internal standard at each time point was compared to the PARR at time 0 to determine the percent remaining at each time point. Half-lives were calculated using GraphPad software, fitting to a single-phase exponential decay equation.

[9] = In vitro liver microsome stability (DLM); format: in vitro ADME; details: dog, dog liver microsomes, 0.5 mg/mL microsomes, NADPH, read-out: DLM, t1/2
Experimental: as §1, with “The peak area response ratio (PARR) of analyte to internal standard at each time point was compared to the PARR at time 0 to determine the percent remaining at each time point.” left out

[10] = In vitro liver microsome stability (MsLM); format: in vitro ADME; details: mouse, mouse liver microsomes, 0.5 mg/mL microsomes, NADPH, read-out: MsLM, t1/2
Experimental: as §1, with “The peak area response ratio (PARR) of analyte to internal standard at each time point was compared to the PARR at time 0 to determine the percent remaining at each time point.” left out

[11] = In vitro liver microsome stability (HLM); format: in vitro ADME; details: human, human liver microsomes, 0.5 mg/mL microsomes, NADPH, read-out: HLM, t1/2
Experimental: as §1, with “The peak area response ratio (PARR) of analyte to internal standard at each time point was compared to the PARR at time 0 to determine the percent remaining at each time point.” left out

[12] = cited from earlier work
[13] = molecular target: 5-HT2C receptor (Homo sapiens (Human), UniProt P28335); experiment: 5-HT2C radioligand competition binding ([3H]mesulergine or [3H]LSD); details: read-out: 5-HT2C, Ki; radioligand [3H]mesulergine
Sequence of 5-HT2C receptor (P28335 whole entry, looked up): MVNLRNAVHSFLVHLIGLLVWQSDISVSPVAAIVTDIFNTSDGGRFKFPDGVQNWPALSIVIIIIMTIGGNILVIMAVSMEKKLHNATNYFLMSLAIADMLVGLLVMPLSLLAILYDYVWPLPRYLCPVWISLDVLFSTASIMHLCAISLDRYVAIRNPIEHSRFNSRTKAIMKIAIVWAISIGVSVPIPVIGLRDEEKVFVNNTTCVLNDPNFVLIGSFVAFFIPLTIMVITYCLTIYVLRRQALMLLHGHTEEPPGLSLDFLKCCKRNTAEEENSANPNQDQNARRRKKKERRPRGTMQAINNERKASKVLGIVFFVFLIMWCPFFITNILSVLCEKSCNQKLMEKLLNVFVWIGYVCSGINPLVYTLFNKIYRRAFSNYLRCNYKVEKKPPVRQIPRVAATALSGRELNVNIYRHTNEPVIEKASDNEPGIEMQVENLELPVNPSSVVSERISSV

[14] = brain, read-out: Brain, 160 min
[15] = plasma, read-out: Plasma, 15 min
[16] = plasma, read-out: Plasma, 160 min
[17] = read-out: 5-HT2A, Ki, radioligand [3H]LSD
[18] = read-out: 5-HT2A, Ki, radioligand [3H]ketanserin

## COc1cc(SCCC(F)F)c(OC)cc1CCN [Compound I-3, 2-(4-((3,3-difluoropropyl)thio)-2,5-dimethoxyphenyl)ethan-1-amine]
[1]
  half-life at 1 μM: 1.85 h
[2]
  pEC50: 8.00
  2A/2B EC50 Selectivity: 16
  Emax: 93%
[3]; mice, 3 mg/kg s.c.
  HTR 15-25 min: 5
  HTR 160-170 min: 2.5
[4]; brain, read-out: Brain 15 min
  concentration at 15 min: 670 nM
[4]; [14]
  concentration at 160 min: 510 nM
[4]; 160 min after 3 mg/kg
  Kp at 160 min: 9.3
[4]; [15]
  concentration at 15 min: 700 nM
[4]; [16]
  concentration at 160 min: 55 nM
[5]
  pKi: 7.36
  affinity at 5-HT2A receptors (in words): high affinity
[5]; read-out: 5-HT2A, Ki, [3H]LSD, high-affinity active state
  pKi: 9.40
[6]
  inhibition at 0.1 µM: 10%
  inhibition at 1 µM: 63%
[7]
  pEC50: 6.80
[7]; constrained to 100%
  Emax: 100%

## COc1cc(SC(F)F)c(OC)cc1CCN [Compound I-8, 2-(4-((difluoromethyl)thio)-2,5-dimethoxyphenyl)ethan-1-amine]
[2]
  pEC50: 8.28
  2A/2B EC50 Selectivity: 12.8
  Emax: 99%
[3]; mice, 3 mg/kg s.c.
  HTR 15-25 min: 33.4
  HTR 160-170 min: 17.4
[4]; brain, read-out: Brain 15 min
  concentration at 15 min: 1900 nM
[4]; [14]
  concentration at 160 min: 2200 nM
[4]; 160 min after 3 mg/kg
  Kp at 160 min: 74
[4]; [15]
  concentration at 15 min: 300 nM
[4]; [16]
  concentration at 160 min: 30 nM
[5]
  affinity at 5-HT2A receptors (in words): high affinity
[5]; [17]
  pKi: 8.20
[6]
  inhibition at 0.1 µM: 38%
  inhibition at 1 µM: 84%
[7]
  pEC50: 7.17
[7]; relative to 5-HT
  Emax: 87%

## COc1cc(C2CCCC2)c(OC)cc1CCN [Compound I-13, 2-(4-cyclopentyl-2,5-dimethoxyphenyl)ethan-1-amine]
[1]
  half-life at 1 μM: 0.13 h
[8]
  half-life at 1 μM: > 2 h
[3]; 3 mg/kg
  HTR (in words): did not elicit an HTR
[3]; mice, 3 mg/kg s.c.
  HTR 15-25 min: 2.7
[5]
  affinity at 5-HT2A receptors (in words): appreciable affinity
[5]; [17]
  pKi: 6.82

## [2H]C([2H])([2H])Oc1cc(SC(F)(F)F)c(OC([2H])([2H])[2H])cc1CCN [II-10, 2-(2,5-bis(methoxy-d3)-4-((trifluoromethyl)thio)phenyl)ethan-1-amine]
[1]
  half-life at 1 μM: 0.988 h
[8]
  half-life at 1 μM: > 2 h
[2]
  5-HT2AR agonist activity (in words): pronounced agonists
[9]
  half-life at 1 μM: > 2 h
[3]; measured 0-15 min
  HTR 15-25 min: 25.6 ##
[4]; 160 min after 3 mg/kg
  brain/plasma ratio, 160 min: 24.4
  Kp at 160 min: 24 to 32
[4]; [14]
  concentration at 160 min: 8800 nM
[4]; [16]
  concentration at 160 min: 360 nM
[5]
  pKi: 7.46
  affinity at 5-HT2A receptors (in words): superior affinity
[5]; read-out: 5-HT2A, Ki, [3H]ketanserin, high-affinity active state
  pKi: 9.27
[10]
  half-life at 1 μM: > 2 h
[11]
  half-life at 1 μM: > 2 h

## COc1cc(OC)c(OC)cc1CCN [2C—O]
[12]
  activity after oral administration: inactive

## [2H]C([2H])(N)Cc1cc(OC)c(C(F)(F)F)cc1OC [IV-3, 2-(2,5-dimethoxy-4-(trifluoromethyl)phenyl)ethan-1,1-d2-1-amine]
[13]
  pKi: 7.64
[1]
  half-life at 1 μM: 0.185 h
[8]
  half-life at 1 μM: 1.7 h
[5]; [18]
  pKi: 7.38

## COc1cc(C(F)(F)F)c(OC)cc1CCN [Reference Compound 4, 2-(2,5-dimethoxy-4-(trifluoromethyl)phenyl)ethan-1-amine, reference compound]
[13]
  pKi: 7.46
[1]
  half-life at 1 μM: 0.128 h
[8]
  half-life at 1 μM: 1.46 h
[5]; [18]
  pKi: 7.60
